For assay [1], the target named is purified human Factor XIa (Homo sapiens (Human), UniProt P03951). Put plainly: biochemical. The format is biochemical. Conditions: read-out: Factor XIa Ki.
Assay [2] has as its target purified human plasma kallikrein (Homo sapiens (Human), UniProt P03952). Put plainly: biochemical. It is filed as biochemical. To be noted: read-out: Plasma Kallikrein Ki.

Where a name gives a salt, the structure may show the parent alone.

purified human plasma kallikrein, sequence (P03952 whole entry, looked up): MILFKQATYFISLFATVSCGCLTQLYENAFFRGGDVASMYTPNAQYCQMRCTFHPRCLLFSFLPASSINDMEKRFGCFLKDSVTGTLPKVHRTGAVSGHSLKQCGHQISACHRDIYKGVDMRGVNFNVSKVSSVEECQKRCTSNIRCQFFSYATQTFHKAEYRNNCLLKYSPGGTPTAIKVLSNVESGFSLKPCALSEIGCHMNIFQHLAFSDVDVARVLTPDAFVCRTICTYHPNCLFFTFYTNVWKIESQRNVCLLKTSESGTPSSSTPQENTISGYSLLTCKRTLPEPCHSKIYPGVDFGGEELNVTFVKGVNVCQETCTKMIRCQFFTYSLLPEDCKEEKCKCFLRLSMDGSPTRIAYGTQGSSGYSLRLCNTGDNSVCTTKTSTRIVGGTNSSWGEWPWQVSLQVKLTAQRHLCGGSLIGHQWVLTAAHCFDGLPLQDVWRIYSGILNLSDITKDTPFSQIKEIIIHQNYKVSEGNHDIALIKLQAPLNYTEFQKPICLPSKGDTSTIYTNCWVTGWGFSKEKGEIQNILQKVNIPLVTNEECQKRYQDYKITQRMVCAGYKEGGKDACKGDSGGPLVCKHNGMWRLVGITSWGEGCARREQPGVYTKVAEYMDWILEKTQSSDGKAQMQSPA
purified human plasma kallikrein, sequence (P03952 whole entry partner, looked up): as the sequence (P03952 whole entry, looked up) above
purified human Factor XIa, sequence (P03951 whole entry, looked up): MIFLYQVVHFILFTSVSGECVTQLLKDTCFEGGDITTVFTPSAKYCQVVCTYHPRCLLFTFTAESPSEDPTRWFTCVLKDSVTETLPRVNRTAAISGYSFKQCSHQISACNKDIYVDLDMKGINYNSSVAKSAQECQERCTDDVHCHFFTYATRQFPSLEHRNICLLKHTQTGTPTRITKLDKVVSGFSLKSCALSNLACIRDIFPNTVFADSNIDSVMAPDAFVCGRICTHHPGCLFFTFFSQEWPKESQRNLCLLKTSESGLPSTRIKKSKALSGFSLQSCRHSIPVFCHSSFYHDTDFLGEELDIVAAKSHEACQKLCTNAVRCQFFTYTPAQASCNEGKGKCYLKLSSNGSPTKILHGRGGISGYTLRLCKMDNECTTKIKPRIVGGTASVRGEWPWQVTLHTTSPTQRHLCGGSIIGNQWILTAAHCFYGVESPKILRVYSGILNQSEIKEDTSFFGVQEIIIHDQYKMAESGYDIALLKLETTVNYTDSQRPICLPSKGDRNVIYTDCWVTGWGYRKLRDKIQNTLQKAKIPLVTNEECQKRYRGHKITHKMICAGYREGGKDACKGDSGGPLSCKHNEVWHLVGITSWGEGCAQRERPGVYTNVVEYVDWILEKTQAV
purified human Factor XIa, sequence (P03951 whole entry partner, looked up): as the sequence (P03951 whole entry, looked up) above

Take `C[C@@H]1CCC[C@H](N2CCC(c3c(F)ccc(Cl)c3F)=CC2=O)c2cc(ccn2)-c2cc(F)c(F)cc2NC1=O` [Example 205, (10R,14S)-14-[4-(3-chloro-2,6-difluorophenyl)-6-oxo-1,2,3,6-tetrahydropyridin-1-yl]-4,5-difluoro-10-methyl-8,16-diazatricyclo[13.3.1.0^2,7]nonadeca-1(19),2(7),3,5,15,17-hexaen-9-one, TFA salt]: the Ki was 69.2 nM in assay [1] and 88.4 nM in assay [2].

Turning to `C[C@@H]1CCC[C@H](N2CCC(c3c(Br)ccc(Cl)c3F)=CC2=O)c2cc(ccn2)-c2cc(F)c(F)cc2NC1=O` [Example 206, (10R,14S)-14-[4-(6-bromo-3-chloro-2-fluorophenyl)-6-oxo-1,2,3,6-tetrahydropyridin-1-yl]-4,5-difluoro-10-methyl-8,16-diazatricyclo[13.3.1.0^2,7]nonadeca-1(19),2(7),3,5,15,17-hexaen-9-one, TFA salt], the Ki amounted to 11.8 nM in assay [1] and 27.5 nM in assay [2].

Take `C[C@@H]1CCC[C@H](N2CCC(c3c(C#N)ccc(Cl)c3F)=CC2=O)c2cc(ccn2)-c2c(F)cc(F)cc2NC1=O` [Example 207, 4-chloro-2-{1-[(10R,14S)-3,5-difluoro-10-methyl-9-oxo-8,16-diazatricyclo[13.3.1.0^2,7]nonadeca-1(19),2(7),3,5,15,17-hexaen-14-yl]-6-oxo-1,2,3,6-tetrahydropyridin-4-yl}-3-fluorobenzonitrile, TFA salt]: the inhibition constant Ki in assay [1] was found to be 2.75 nM; in assay [2], 5.8 nM.

As to `C[C@@H]1CCC[C@H](N2CCC(c3c(C#N)ccc(Cl)c3F)=CC2=O)c2cc(ccn2)-c2c(ccc(F)c2F)NC1=O` [Example 208, 4-chloro-2-{1-[(10R,14S)-3,4-difluoro-10-methyl-9-oxo-8,16-diazatricyclo[13.3.1.0^2,7]nonadeca-1(19),2(7),3,5,15,17-hexaen-14-yl]-6-oxo-1,2,3,6-tetrahydropyridin-4-yl}-3-fluorobenzonitrile, TFA salt], the Ki in assay [1] amounted to 1 nM; in assay [2], 3.1 nM.

Regarding `C[C@@H]1CCC[C@H](N2CCC(c3c(C#N)ccc(C#N)c3F)=CC2=O)c2cc(ccn2)-c2c(ccc(F)c2F)NC1=O` [Example 209, 2-{1-[(10R,14S)-3,4-difluoro-10-methyl-9-oxo-8,16-diazatricyclo[13.3.1.0^2,7]nonadeca-1(19),2(7),3,5,15,17-hexaen-14-yl]-6-oxo-1,2,3,6-tetrahydropyridin-4-yl}-3-fluorobenzene-1,4-dicarbonitrile, TFA salt], the inhibitory constant (Ki) in assay [1] amounted to 120 nM; in assay [2], 457 nM.

As to `C[C@@H]1CCC[C@H](N2CCC(c3c(C#N)ccc(C#N)c3F)=CC2=O)c2cc(ccn2)-c2cc(F)c(F)cc2NC1=O` [Example 210, 2-{1-[(10R,14S)-4,5-difluoro-10-methyl-9-oxo-8,16-diazatricyclo[13.3.1.0^2,7]nonadeca-1(19),2(7),3,5,15,17-hexaen-14-yl]-6-oxo-1,2,3,6-tetrahydropyridin-4-yl}-3-fluorobenzene-1,4-dicarbonitrile, TFA salt], the Ki in assay [1] was 477 nM; in assay [2] it was 1200 nM.

On to `C[C@@H]1CCC[C@H](N2CCC(c3c(C#N)ccc(Cl)c3F)=CC2=O)c2cc(ccn2)-c2cc(F)c(F)cc2NC1=O` [Example 211, 4-chloro-2-{1-[(10R,14S)-4,5-difluoro-10-methyl-9-oxo-8,16-diazatricyclo[13.3.1.0^2,7]nonadeca-1(19),2(7),3,5,15,17-hexaen-14-yl]-6-oxo-1,2,3,6-tetrahydropyridin-4-yl}-3-fluorobenzonitrile, TFA salt], for which the figures for the inhibitory constant (Ki) in assay [1] and in assay [2] were 3.26 nM and 6.46 nM, respectively.

Regarding `C[C@@H]1CCC[C@H](n2ccc(-c3cccc(Cl)c3F)cc2=O)c2cc(ccn2)-c2c(F)cc(F)cc2NC1=O` [Example 212, (10R,14S)-14-[4-(3-chloro-2-fluorophenyl)-2-oxo-1,2-dihydropyridin-1-yl]-3,5-difluoro-10-methyl-8,16-diazatricyclo[13.3.1.0^2,7]nonadeca-1(19),2(7),3,5,15,17-hexaen-9-one, TFA salt], the Ki was found to be 111 nM in assay [1] and 286 nM in assay [2].

In the case of `COC(=O)c1cccc2c1-c1ccnc(c1)[C@@H](N1CCC(c3c(F)ccc(Cl)c3F)=CC1=O)CCC[C@@H](C)C(=O)N2` [Example 213, Methyl (10R,14S)-14-[4-(3-chloro-2,6-difluorophenyl)-6-oxo-1,2,3,6-tetrahydropyridin-1-yl]-10-methyl-9-oxo-8,16-diazatricyclo[13.3.1.0^2,7]nonadeca-1(19),2(7),3,5,15,17-hexaene-3-carboxylate, TFA salt], the results for the Ki in assay [1] and in assay [2] were above 413 nM and 3370 nM, respectively.

On to `C[C@@H]1CCC[C@H](N2CCC(c3c(F)ccc(Cl)c3F)=CC2=O)c2cc(ccn2)-c2c(cccc2C(=O)O)NC1=O` [Example 214, (10R,14S)-14-[4-(3-chloro-2,6-difluorophenyl)-6-oxo-1,2,3,6-tetrahydropyridin-1-yl]-10-methyl-9-oxo-8,16-diazatricyclo[13.3.1.0^2,7]nonadeca-1(19),2(7),3,5,15,17-hexaene-3-carboxylic acid, TFA salt], for which the figures for the Ki in assay [1] and in assay [2] were above 423 nM and above 13000 nM, respectively.

For `C[C@@H]1CCC[C@H](N2CCC(c3c(-n4cnnn4)ccc(Cl)c3F)=CC2=O)c2cc(ccn2)-c2cc(F)c(F)cc2NC1=O` [Example 215, (10R,14S)-14-{4-[3-chloro-2-fluoro-6-(1H-1,2,3,4-tetrazol-1-yl)phenyl]-6-oxo-1,2,3,6-tetrahydropyridin-1-yl}-4,5-difluoro-10-methyl-8,16-diazatricyclo[13.3.1.0^2,7]nonadeca-1(19),2(7),3,5,15,17-hexaen-9-one, TFA salt], the inhibitory constant (Ki) in assay [1] is 0.07 nM; in assay [2] it was 3.61 nM.

With `COC(=O)Nc1ccc2c(c1)C(=O)NCC/C=C/C[C@H](N1CCC(c3c(F)ccc(Cl)c3F)=CC1=O)c1cc-2ccn1` [Example 216, Methyl N-[(12E,15S)-15-[4-(3-chloro-2,6-difluorophenyl)-6-oxo-1,2,3,6-tetrahydropyridin-1-yl]-8-oxo-9,17-diazatricyclo[14.3.1.0^2,7]icosa-1(20),2(7),3,5,12,16,18-heptaen-5-yl]carbamate, TFA salt], the Ki in assay [1] turned out to be 264 nM; in assay [2], 212 nM.

Take `COC(=O)Nc1ccc2c(c1)NC(=O)CCCCC[C@H](N1CCC(c3c(F)ccc(Cl)c3F)=CC1=O)c1cc-2ccn1` [Example 219, Methyl N-[(15S)-15-[4-(3-chloro-2,6-difluorophenyl)-6-oxo-1,2,3,6-tetrahydropyridin-1-yl]-9-oxo-8,17-diazatricyclo[14.3.1.0^2,7]icosa-1(20),2(7),3,5,16,18-hexaen-5-yl]carbamate, TFA salt]: the values for the Ki in assay [1] and in assay [2] were 6.61 nM and 6.85 nM, respectively.

Turning to `Cc1[nH]c2nc1-c1ccccc1NC(=O)[C@H](C)CCC[C@@H]2N1CCC(c2c(F)ccc(Cl)c2F)=CC1=O` [Example 220, (10R,14S)-14-[4-(3-chloro-2,6-difluorophenyl)-6-oxo-1,2,3,6-tetrahydropyridin-1-yl]-10,17-dimethyl-8,16,18-triazatricyclo[13.2.1.0^2,7]octadeca-1(17),2,4,6,15(18)-pentaen-9-one, TFA salt], the Ki in assay [1] worked out at 21.7 nM; in assay [2], 50.2 nM.

For orientation: Ki means a dissociation constant, usually derived from enzyme kinetics or from competition with a known ligand.
